Common to all, as to type: cell-based
Test [1] has as its system Raji cells. As to the kind of experiment: cell death induced by a pro-apoptotic chemical agent (nanoluciferase release and TO-PRO-3 flow cytometry). The following applies: 48 hours, increasing concentrations; regardless of the method for measuring the mortality. As to the method: Raji cells transformed to stably express nanoluciferase (50 000 cells per well) are cultured for 48 hours at 37° C. (under a humidified atmosphere containing 5% CO2) in the presence of increasing concentrations of staurosporine, which is a pro-apoptotic drug, in RPMI-1640 medium containing 10% of FCS, and in the presence or absence of 0.2% of triton X-100 (to determine the maximum release). At the end of the incubation, 25 μl of supernatant are recovered from each well, transferred into a white “half-well” plate, mixed with 25 μl of NanoGlo® substrate diluted to 1/50 in D-PBS, incubated for 3 minutes and read on a Mithras LB940 luminometer. The results of the reading are expressed in RLU (relative luminescence units). The percentage of dead cells for each concentration of staurosporine is determined according to the formula (RLU[triton-free medium])/(RLU[0.2% triton])×100.
After removing the supernatant, the remainder of the cells are resuspended, extemporaneously mixed with a final concentration of 0.25 μM of the vital marker TO-PRO-3 (Life Technologies) and acquired on a C6 flow cytometer (BD/Accuri). The percentage of dead cells is determined during the analysis of the cytometry data as the percentage of cells having integrated the TO-PRO-3.
Two identical independent experiments were carried out, the results of which are presented on graphs A and B of FIG. 28. […]

For test [2], the system named is CHO cells stably expressing TNF-alpha and nanoluciferase. In words: anti-TNF-alpha ADCC assay, 51Cr release method. The following applies: mean±SD of 3 experiments. How it is done: (§1) The nanoluciferase method was compared to the ^51Cr method in an anti-TNF-alpha ADCC assay. For this, the CHO cells described in example 7, stably expressing TNF-alpha and nanoluciferase, were used, as was a standard range of adalimumab and of variations at 80% and 125% of this range. Three independent experiments were carried out, according to the same methodology as in the previous examples.

For test [3], the system named is CHO cells stably expressing human TNF-alpha in its membraned form. In words: anti-TNF-alpha CDC assay, nanoluciferase release method. The following applies: for mean potency: mean±SD. As to the method: (§2) The method for measuring nanoluciferase release was compared to the chromium method in a third model, that of the anti-TNF-alpha antibody adalimumab (Humira®). The present example illustrates the implementation thereof in an assay for measuring the CDC activity. For this, CHO cells pretransformed and selected to stably express human TNF-alpha in its membraned form were transformed to stably express nanoluciferase. […] Briefly, these cells, labeled or not labeled with ^51Cr, were incubated in the presence of increasing concentrations of adalimumab (Humira®) and of a source of complement (from guinea pig (Sigma)). The specific lysis was then measured by the appropriate method (chromium release or nanoluciferase release).
(§3) The percentage of specific lysis obtained for each concentration X is calculated in the same way for the two types of methods, on the basis of the measurements of radioactivity (in CCPM) or of luminescence (in RLU) according to the formula
(§4) The percentages of specific lysis are represented along the y-axis, each point (black circle for nanoluciferase and white squares for ^51Cr) representing the mean of the nine determinations (3 replicates in 3 independent experiments) and the vertical bars representing the standard deviations. The data were modeled by means of a 4-parameter sigmoidal regression using the GraphPad Prism software.

For test [4] the test system is unchanged. As to the kind of experiment: anti-TNF-alpha CDC assay, 51Cr release method. The following applies: for mean potency: mean±SD. As to the method:
as §2, §3, §4

Test [5] concerns CHO cells stably expressing TNF-alpha and nanoluciferase. As to the kind of experiment: anti-TNF-alpha ADCC assay, nanoluciferase release method. The following applies: mean±SD of 3 experiments. How it is done:
as §1

In test [6] the test system is Raji target cells. In words: anti-CD20 ADCC assay, 51Cr release method. How it is done: (§5) The same Raji cells expressing nanoluciferase were or were not labeled with ^51Cr and were used in parallel in the assay.
(§6) Raji target cells transformed to stably express nanoluciferase were incubated or not incubated for 1 hour in a saline solution of Na2CrO4 equivalent to 100 μCi of ^51Cr per million cells, then washed 4 times with RPMI-1640, 10% FCS, and counted. The cells (3000 per well), labeled or not labeled with ^51Cr, were then incubated at 37° C. in a humidified atmosphere at 5% CO2 in flat-bottomed 96-well plates treated for cell culture, in the presence of increasing concentrations of the rituximab antibody (MabThera®) and of cytotoxic effector cells (T lymphocytes expressing CD16, 30 000 cells per well) in RPMI-1640 supplemented with 5% of FCS.
(§7) After 4 hours of incubation, the percentage of specific lysis is measured according to the corresponding method (release of ^51Cr or of nanoluciferase depending on whether the cells have or have not been labeled with chromium): 25 μl of supernatant of the ^51Cr-labeled cells are recovered and deposited on a Lumaplate® (Perkin Elmer). At the same time, for the cells not labeled with ^51Cr, 25 μl of supernatant are recovered from each well, transferred into white “half-well” 96-well plates, mixed with 25 μl of NanoGlo® substrate diluted to 1/50 in D-PBS, incubated for 3 minutes and read on a Mithras LB940 luminometer (Berthold Technologies). After drying overnight, the radioactivity of the supernatants deposited in the Lumaplate® is measured in a Microbeta-Jet counter (Perkin Elmer) and expressed in CCPM (corrected count per minute) after standardization of the detectors.
(§8) The percentage of specific lysis obtained for each concentration X is calculated in the same way for the two types of methods, from the measurements of radioactivity (in CCPM) or of luminescence (in RLU) according to the formula
(§9) The percentages of specific lysis are represented in FIG. 9 along the y-axis, each point representing the mean of the nine determinations (3 replicates in 3 independent experiments) and the vertical bars representing the standard deviations. The data were modeled by means of a 4-parameter sigmoidal regression using the GraphPad Prism software.
(§10) This approach also makes it possible to evaluate the accuracy of the method according to the ICH-Q2(R1) criteria.

In test [7] the test system is Raji target cells. In words: anti-CD20 CDC assay, nanoluciferase release method. How it is done: as §6, §7, §8, §9, §10
(§11) Using the same type of target cells as that of example 4, the nanoluciferase method was compared to the ^51Cr method in an anti-CD20 CDC assay. The methodology applied was the same as that described in example 4, the cytolytic system being formed by a source of complement. In the same way, a standard range of antibody (rituximab) was used, and also 80% and 125% modified concentration ranges. Three independent experiments were carried out, one of which was carried out by a second operator.

For test [8], the system named is Raji target cells. As to the kind of experiment: anti-CD20 CDC assay, 51Cr release method. As to the method: as §6, §7, §8, §9, §10, §11
Test [9] deals with Raji target cells. As to the kind of experiment: anti-CD20 ADCC assay, nanoluciferase release method. How it is done: as §5, §6, §7, §8, §9, §10
The mark [10] stands for this setting: guinea pig complement, mean±SD over the whole of the ranges in the 3 experiments.
Where [11] appears, read: 51Cr, guinea pig complement, mean±SD over the whole of the ranges in the 3 experiments.
The mark [12] stands for this setting: 80% range, mean±SD of 3 experiments.
Setting [13] is: 125% range, mean±SD of 3 experiments.
The mark [14] stands for this setting: mean±SD of 3 experiments, 100% range.
Setting [15] is: mean±SD, 80%, 100% and 125% ranges, 3 experiments, 4 h, CD16 T lymphocyte effectors.
The mark [16] stands for this setting: 100% range, mean±SD of 3 experiments.
The mark [17] stands for this setting: complement source, mean±SD, all of the 80%, 100% and 125% ranges.

The values below come from US20180051317A1, “NON-RADIOACTIVE METHOD FOR DETERMINING THE CYTOLITIC ACTIVITY OF AN AGENT WITH RESPECT TO TARGET CELLS, USE THEREOF AND ASSOCIATED KIT” (CLEAN CELLS, priority 2015, published 2018).

Take `CN[C@@H]1C[C@H]2O[C@@](C)([C@@H]1OC)n1c3ccccc3c3c4c(c5c6ccccc6n2c5c31)C(=O)NC4` [staurosporine]: in [1], the “mortality of the target cells” value is “proportional relationship between the concentration of staurosporine and the mortality of the target cells”.
A word on the Emax: it is the maximal effect, on the per cent scale that the assay sets. As usually defined, the EC50 is the concentration needed to bring the measured effect to its halfway point. Higher therefore signals lower potency in that assay. As to adalimumab, the mean potency in [2] (80% range) came out at 91.4±43.3%; in test [2] (125% range), 138.5±43.9%; in test [3] (80% range), 83.4±10.1%; in test [3] (125% range), 131.7±47.2%; in test [4] (51Cr, 80% range), 91.2±23.6%; in test [4] (51Cr, 125% range), 153.9±29.2%. Also, the mean potency in [5] (80% range) was 75.5±15.5%; in test [5] (125% range), 114.2±22.8%. Besides, the maximal response (Emax) came to 45.7±5.1% in [3] (setting [10]) and 50.4±5.6% in test [4] (setting [11]). The figures for the Emin in test [3] (setting [10]) and in test [4] (setting [11]) were 0.9±1.5% and 3.2±2.8%, respectively. For the same compound, the half-maximal effective concentration (EC50) in test [3] (standard ranges, mean±SD of 3 experiments) is 0.1569 ± 0.0234 µg/mL; in test [4] (chromium, standard ranges, mean±SD of 3 experiments), 0.1508 ± 0.015 µg/mL.
As to rituximab, the “potency (EC50[100%]/EC50[X%]×100)” value in test [6] (setting [12]) is 76.7±10%; in [6] (setting [13]) it was 131.9±11.9%; in [9] (setting [12]), 83.6±22%; in test [9] (setting [13]), 119.5±22.7%. Besides, the EC50 in [6] (setting [14]) was found to be 0.0552 ± 0.0156 µg/mL; in [7] (setting [16]), 0.0731 ± 0.0099 µg/mL; in test [8] (setting [16]), 0.1567 ± 0.0301 µg/mL; in test [9] (setting [14]), 0.0318 ± 0.0073 µg/mL. Moreover, the “Emax (maximum lysis percentage)” value in test [6] (setting [15]) was 75.7±6.0%; in test [9] (setting [15]), 73.6±8.4%. The “Emin (minimum lysis percentage)” value is 1.0±1.5% in test [6] (setting [15]) and 1.2±1.2% in test [9] (setting [15]). The potency in test [7] (80% range, mean±SD) came to 65.0±12.9%; in test [7] (125% range, mean±SD), 105.8±8.2%; in [8] (80% range, mean±SD), 69.6±12.3%; in [8] (125% range, mean±SD), 131.5±16.4%. The maximum response (Emax) in [7] (setting [17]) worked out at 95.6±7.0%; in [8] (setting [17]), 88.6±7.8%. For the same compound, the Emin is −0.3±3.2% in [7] (setting [17]) and 3.0±3.4% in test [8] (setting [17]).
